Values of other authors, collected in publication PMC11822664, “First‐In‐Human Dose Finding Study of Venadaparib (IDX‐1197), a Potent and Selective PARP Inhibitor, in Patients With Advanced Solid Tumors” (Cancer Medicine, 2025).

Columns and labels:
[1] = tested on: patients with advanced ovarian cancer; conditions: cited from earlier work
PARP = conditions: olaparib phase I trial ref 22; cited from earlier work
[2] = advanced ovarian cancer with ≥ 2 prior systemic treatments ref 33

## O=C(c1cc(Cc2n[nH]c(=O)c3ccccc23)ccc1F)N1CCN(C(=O)C2CC2)CC1 [olaparib]
[1]; advanced ovarian cancer ref 33
  Anemia incidence: 46%
  Neutropenia incidence: 24%
[1]; [2]
  Nausea incidence: approximately 76%
  Vomiting incidence: ~40%
PARP
  Dose from which clinical benefit started: ≥ 100 mg twice daily (BID)
